From patent publication US20080242622A1, “Identification of genetic alterations that modulate drug sensitivity in cancer treatments” (Cold Spring Harbor Laboratory, priority 2007, published 2008)
Where “and” joins values, the source holds several entries; their conditions need not be identical. Identical values can stand only once.

Assays:
[1] = tested on: shTop1 2215 relapsed tumor #4 cells; test: Ex vivo viability of relapsed tumor cells (propidium iodide exclusion flow cytometry); format: cell-based, mice; details: treated ex-vivo for 24 hours
Source text: Viability, measured by propidium iodide exclusion flow cytometry, is plotted relative to untreated cells.

[2] = tested on: Eμ-Myc Arf^−/− lymphoma cells; test: Apoptotic response / in vitro viability of lymphoma cells to doxorubicin; format: cell-based, murine; details: Mus musculus; apoptotic response within 24 hours
Experimental: Competition and viability assays were performed according to the following protocols. 2 days post infection, lymphoma cells were split into replicate wells of 500,000 cells in 12 well plates. Following 24 hour treatments with a range of drug doses, the GFP positive percentage was quantified in the surviving cell population using a BD LSRII flow cytometer. The live cell population was gated via a forward scatter (FSC) versus side scatter (SSC) plotting. […] For in vitro cell viability assays, lymphoma cells were treated in triplicate at the indicated doses of doxorubicin/camptothecin. Viability was determined after 24 hours by an FSC versus SSC gate and plotted relative to untreated viability.

[3] = congestive heart failure, dilated cardiomyopathy, death; cited from earlier work

IC50 [2] | SMILES | drug resistance of Top2A down-regulated relapse compared to control primary tumor [1] | cumulative dose at which risks of cardiac side effects dramatically increase [3] [mg/m^2]
– | N.N.[Cl][Pt][Cl] [cisplatin] | not cross-resistance to cisplatin | –
~0.007 µg/mL and ~16 nM | COc1cccc2c1C(=O)c1c(O)c3c(c(O)c1C2=O)C[C@@](O)(C(=O)CO)C[C@@H]3O[C@H]1C[C@H](N)[C@H](O)[C@H](C)O1 [doxorubicin] | doxorubicin resistance | ≥ 550
